Patent publication US12685715B2, “Compositions, methods of treatment, and containers including compositions” (University of Florida Research Foundation, Inc., priority 2018, dated 2026)

Key:
[1] = Cysteamine degradation in anti-oxidant formulations, vials exposed to atmospheric oxygen (UV-vis); assay type: physicochemical
Protocol: All formulations containing hydrophilic components (SUR, CAT) were prepared by stirring at room temperature till dissolution. All formulations were tested for pH and adjusted to 7.4 if required. For each formulation, 20 mL of liquid was placed into a 22 mL, flat bottom, 28 mm diameter, glass vial (Fisher Scientific). Each formulation was purged with nitrogen gas for two hours to minimize dissolved oxygen. After purging, 2.0±0.1 mg cysteamine was added to each formulation to achieve a concentration of 0.1 mg mL^−1 which is about one-fourth of the concentration in the commercial formulation. We are interested in the relative changes in degradation rates by addition of anti-oxidants so reducing concentration will not be a significant factor. […] The vials were then left exposed to atmospheric oxygen to ensure that the degradation rates were not limited by availability of oxygen. The formulations were periodically sampled for measurement of UV spectra in 190-350 nm range (Thermo Scientific™ GENESYS™ 10S UV-Vis Spectrophotometer). The spectra of cysteamine and the oxidation product cystamine are sufficiently different so the combined spectra obtained from the samples can be separated via a least square fit to yield the concentrations of both components. After analyzing, the solution was returned to the vial to conserve total volume. […]

[2] = Cysteamine degradation in eye drop bottles with OMAC film barrier / combined approach, drops withdrawn periodically; assay type: physicochemical; conditions: calculated, 30 μL drop
Protocol: To explore the effect of any alterations in packaging, it was considered more realistic to use a commercial eye drop bottle. […] As these systems were in a nearly closed system, evaporation was not a concern, so they could be run for longer durations of time compared to the anti-oxidant experiments performed open to atmosphere. At certain time intervals, the screw cap was removed, and the bottle was squeezed to eject one drop. The mass of the drop was measured, and the drop was diluted 100 fold by PBS. This diluted solution was then measured by UV-vis spectrophotometry to determine the degradation of cysteamine.
Catalase (0.15%) was added to the cysteamine solution, which was nitrogen purged for an additional half hour. The solution was then placed in the bottle and topped with a 1.0 cm layer of 50% (v/v) soybean oil and 50% vitamin E. The bottle was then capped and tested for degradation of cysteamine while periodically withdrawing eye drop samples, as described in section 2.2.2.2.

degradation rate ([1]; 0.1 mg mL^−1 of cysteamine): 126 ± 4 µg/h
degradation rate ([1]; 4.4 mg mL^−1 of cysteamine): 132 ± 15 µg/h
degradation rate from air entering the bottle after each drop [2]: roughly 10 μg/hr
SMILES: NCCS [cysteamine, Cysteamine]
